Data reported in patent US9994515B2, “Aryl naphthyl methanone oxime(s) and process for preparation thereof” (Council of Scientific & Industrial Research, priority 2013, dated 2018).
Counter-ions that a name gives are not always drawn.

Tests used:
[1] = system: PBMCs isolated from healthy individuals; assay: MTT cytotoxicity in PBMCs from healthy controls; settings: 1 μM, 48 h
HCT116 = assay: Sulphorhodamine B assay in HCT116 colon cancer cells; type: cell-based; settings: Homo sapiens, HCT-116; SRB assay
Vero = assay: Cytotoxicity in Vero kidney epithelial cells; type: cell-based, monkey
Protocol: To consider a molecule as a candidate compound in cancer drug therapy, the test compound must have specific cytotoxicity towards the cancer cells without affecting normal cell growth. Therefore, all active compounds were assessed for toxicity in non-cancer cell-lines: mouse fibroblast cell line (NIH3T3) and monkey kidney epithelial cells (Vero). […] Therefore, based on safety index ([…]), 5d [Centans; based on IUPAC name prefixed with Central Drug Research Institute's signature (Cent)] was selected as a lead compound.

MCF-7 = assay: Annexin V/PI apoptosis flow cytometry in MCF-7; type: cell-based; settings: 24 h
Protocol: To assess if the cell death induced by centans in MCF-7 and MDA-MB231 lines is apoptotic in nature, apoptosis was measured by flow cytometry using annexin V/PI staining kit from Sigma according to manufacturer's instructions.
FIG. 6 Apoptosis induction by Centans in breast cancer cells. Annexin V/PI staining of (A) MCF-7 and (B) MDA-MB231 cells were treated with vehicle (DMSO) or Centans at indicated concentrations for 24 h and […] was assessed by flow cytometry using the FL1-H channel (Annexin-V) and FL2-H channel (PI) of a Becton Dickinson FACS Calibur. Shown are representative dot plots. Quantification of flow cytometry data shown as percent of total cells (right panel). Data presented as mean±SEM from three independent experiments; *P<0.05, **P<0.01, and ***P<0.001 compared to control.

EGFR = molecular target: T1, EGFR (Homo sapiens, UniProt P00533); assay: EGF dependent EGFR phosphorylation ELISA in MDA-MB-231 cells; type: cell-based; settings: read-out: IC50 in terms of EGFR phosphorylation
T1 construct: Serum starved (A,C) MCF-7 cells and (B,D) MDA-MB231 cells were pre-incubated for 1 h; endogenous in cells; host or cells: MCF-7
Protocol: (§1) Since EGFR and Her2 play major roles in breast cancer development and metastatis, the effect of Centans on regulation of these two factors was evaluated in MCF-7 and MDA-MB-231 cells by enzyme-linked immunosorbant assays (ELISA). As depicted in FIGS. 7. A and B, EGF dependent EGFR phosphorylation at Tyr^1068 was strongly attenuated by Centans in both MCF-7 and MDA-MB-231 cells and this effect was much stronger than that of Gefitinib (marketted EGFR inhibitor/anti-cancer drug).
(§2) FIG. 7. Inhibition of EGFR and Her2 phosphorylation by Centans in MCF-7 and MDA-MB231 cells. Serum starved (A,C) MCF-7 cells and (B,D) MDA-MB231 cells were pre-incubated for 1 h with the indicated concentrations of Centans prior to stimulation with EGF for 15 min and EGFR (A and B) or Her2 (C and D) phosphorylation were measured by ELISA. Gef=Gefitinib. All doses are in μM.

DLD1 = assay: Sulphorhodamine B assay in DLD1 colon cancer cells; type: cell-based; settings: Homo sapiens, DLD-1; SRB assay
Her2 = molecular target: T2, Her2 (Homo sapiens, UniProt P04626); assay: Her2 phosphorylation ELISA in MCF-7 cells; type: cell-based
T2 construct: Serum starved (A,C) MCF-7 cells and (B,D) MDA-MB231 cells were pre-incubated for 1 h; endogenous in cells; host or cells: MCF-7
Protocol: as §1, §2

[2] = system: PBMCs from patients with BCR-ABL E255V mutation; assay: MTT cytotoxicity in PBMCs from CML patient with E255V BCR-ABL mutation; type: cell-based, human; settings: 5 μM, 48 h
K562 = assay: Differentiation of K562 cells (Wright-Giemsa staining); type: cell-based; settings: 0.5 μM; 3, 6 and 12 days
Excerpt: In order to clarify whether the inhibitory effects of Centans on the growth and cell cycle of K562 cells was followed by differentiation, Centans treated cells was stained with Wright-Giemsa stain. […] This differentiation was much more pronounced at 12d, where mature megakaryocytes were visible (FIG. 4A). Confirmation of Centans-mediated megakaryocytic differentiation was attained through measurement of expression of relevant cell differentiation markers by quantitative real time PCR. mRNA expression levels of cluster of differentiation 10 (CD10) (transiently present during B-cell maturation at early-B and pre-B lymphoblastic stages and related to megakaryocytic differentiation), CD36 (erythroid differentiation lineage), GATA2 (Over expression of GATA-2 inhibits erythroid and promotes megakaryocyte differentiation) and CD61 (megakaryocytic differentiation marker) was measured.
FIG. 4. CentANS induces Differentiation in K562 cells. […] (B) Expression of differentiation Markers—K562 cells were treated with vehicle; V (DMSO) or centANS and mRNA from these cells were isolated and reverse transcribed. cDNA was used to measure the expression CD10, GATA2, CD61, (megakaryocytic lineage markers) and CD36 (Erythroid lineage marker) by Quantitative Real time PCR, GAPDH was used as control. […]

T1 sequence (P00533 25-1210): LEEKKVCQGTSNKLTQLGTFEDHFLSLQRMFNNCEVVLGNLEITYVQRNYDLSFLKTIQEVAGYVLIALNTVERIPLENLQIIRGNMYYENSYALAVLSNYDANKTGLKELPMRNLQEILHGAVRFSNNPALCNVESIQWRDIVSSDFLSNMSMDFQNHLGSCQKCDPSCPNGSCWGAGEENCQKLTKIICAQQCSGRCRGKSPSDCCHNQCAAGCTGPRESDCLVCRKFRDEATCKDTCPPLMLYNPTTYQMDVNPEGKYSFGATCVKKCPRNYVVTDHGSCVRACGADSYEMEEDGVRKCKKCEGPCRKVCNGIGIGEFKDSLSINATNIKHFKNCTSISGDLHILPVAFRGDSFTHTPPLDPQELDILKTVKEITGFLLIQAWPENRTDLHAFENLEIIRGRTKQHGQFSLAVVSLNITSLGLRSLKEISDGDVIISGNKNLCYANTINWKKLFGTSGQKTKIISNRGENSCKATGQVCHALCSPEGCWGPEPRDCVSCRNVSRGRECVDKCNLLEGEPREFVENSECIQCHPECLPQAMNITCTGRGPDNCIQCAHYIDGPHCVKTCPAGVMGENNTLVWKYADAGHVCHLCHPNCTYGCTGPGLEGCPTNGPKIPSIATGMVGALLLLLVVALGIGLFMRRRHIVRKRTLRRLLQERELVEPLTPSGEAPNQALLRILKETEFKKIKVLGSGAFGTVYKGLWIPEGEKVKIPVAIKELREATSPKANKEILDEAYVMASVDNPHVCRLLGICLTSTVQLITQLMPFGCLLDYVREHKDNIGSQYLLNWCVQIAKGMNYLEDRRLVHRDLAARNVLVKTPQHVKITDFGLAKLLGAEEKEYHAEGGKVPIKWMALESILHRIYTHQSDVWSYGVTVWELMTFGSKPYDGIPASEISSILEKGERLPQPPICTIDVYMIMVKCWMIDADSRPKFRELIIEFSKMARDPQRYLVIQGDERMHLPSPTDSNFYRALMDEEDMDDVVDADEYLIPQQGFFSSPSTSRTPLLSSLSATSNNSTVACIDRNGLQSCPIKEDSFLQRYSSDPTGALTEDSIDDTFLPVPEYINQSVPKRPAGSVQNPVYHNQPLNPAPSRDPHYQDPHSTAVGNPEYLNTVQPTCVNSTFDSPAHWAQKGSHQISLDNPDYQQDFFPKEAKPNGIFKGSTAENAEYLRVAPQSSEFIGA
T2 sequence (P04626 23-1255): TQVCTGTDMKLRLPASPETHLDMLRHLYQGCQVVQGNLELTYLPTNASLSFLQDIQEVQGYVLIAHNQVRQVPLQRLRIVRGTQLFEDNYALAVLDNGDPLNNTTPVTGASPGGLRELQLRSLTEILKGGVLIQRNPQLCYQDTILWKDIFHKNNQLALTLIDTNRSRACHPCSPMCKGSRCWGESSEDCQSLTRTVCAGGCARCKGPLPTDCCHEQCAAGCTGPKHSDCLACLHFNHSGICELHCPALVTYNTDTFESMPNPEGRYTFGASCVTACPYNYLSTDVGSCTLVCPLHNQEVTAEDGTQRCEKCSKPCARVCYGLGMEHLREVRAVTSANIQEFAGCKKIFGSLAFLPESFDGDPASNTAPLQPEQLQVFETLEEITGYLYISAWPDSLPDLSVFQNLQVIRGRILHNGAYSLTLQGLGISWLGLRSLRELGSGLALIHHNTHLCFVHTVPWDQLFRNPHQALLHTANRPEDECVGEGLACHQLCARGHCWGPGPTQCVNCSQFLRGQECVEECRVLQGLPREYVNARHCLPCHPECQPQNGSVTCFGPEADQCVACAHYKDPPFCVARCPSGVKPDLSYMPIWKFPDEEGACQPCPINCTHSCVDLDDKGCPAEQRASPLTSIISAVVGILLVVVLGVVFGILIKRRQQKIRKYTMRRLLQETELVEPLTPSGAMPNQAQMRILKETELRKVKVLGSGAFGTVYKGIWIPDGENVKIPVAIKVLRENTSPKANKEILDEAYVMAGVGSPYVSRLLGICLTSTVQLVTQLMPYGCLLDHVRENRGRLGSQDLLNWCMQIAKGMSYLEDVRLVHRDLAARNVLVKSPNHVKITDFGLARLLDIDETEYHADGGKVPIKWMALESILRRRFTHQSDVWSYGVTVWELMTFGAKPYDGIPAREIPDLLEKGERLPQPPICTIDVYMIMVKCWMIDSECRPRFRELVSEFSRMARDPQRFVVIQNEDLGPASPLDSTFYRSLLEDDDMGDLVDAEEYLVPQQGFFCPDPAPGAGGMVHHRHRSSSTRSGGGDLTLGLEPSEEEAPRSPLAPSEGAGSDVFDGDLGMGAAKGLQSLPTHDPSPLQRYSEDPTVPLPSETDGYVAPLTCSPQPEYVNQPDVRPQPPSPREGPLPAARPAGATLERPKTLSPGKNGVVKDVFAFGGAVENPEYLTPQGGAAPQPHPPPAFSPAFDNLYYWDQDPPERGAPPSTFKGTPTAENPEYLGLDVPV

IC50 (HCT116): 7.7 µM | IC50 (EGFR): 0.0128 µM | IC50 (DLD1): 15.6 µM
Compound: CCN(CC)CCO/N=C(/c1ccc(SC)cc1)c1cccc2ccccc12 [Compound 5d, (4-(methylthio)phenyl)(naphthalen-1-yl)methanone O-2-(diethylamino)ethyl oxime oxalate]
% cell death ([1]; healthy control sample C1): 14.01% | % cell death ([1]; healthy control sample C2): 20.65% | % cell death ([1]; healthy control sample C3): 16.93% | % cell death, Average ([1]; healthy control, average of C1-C3): 17.2% | cytotoxicity in non-cancer cell-line Vero (Vero; MTT assay, solid tumor evaluation): not in non-cancer cell-lines Vero and HEK-293 | IC50 (Vero; Primates, Vero, Table 2, normal cell line): > 25 µM | apoptotic cell population (MCF-7): concentration-dependent increase in apoptotic cell population | HER2 phosphorylation (Her2): significantly reduced HER2 phosphorylation in a dose-dependent manner | % cell death [2]: 48.18% | differentiation of K562 cells (K562): capable of inducing differentiation in K562 cells in a dose-dependent manner
